Experimental data reported in US6436428B1, “Device and method for treating urinary incontinence in females” (Enhance Pharmaceuticals, Inc., priority 2000, dated 2002).

How the values were obtained:
[1] = Plasma oxybutynin and desethyloxybutynin in rabbits with vaginal inserts; assay type: in vivo, rabbit; conditions: for plasma concentration: days 1-7; for plasma values at all time periods (day 1-7): 5.0 mg/day vaginal insert
Description: 12 rabbits were separated into 4 groups of 3 rabbits each. Under pentobarbital anesthesia (25 mg/kg, iv) A cylinder-shaped, curved silastic insert was placed in the vagina of each rabbit. This was accomplished by the following: a midline laparotomy was performed and after transvaginal insertion the implant was anchored with a single 2.0 silk suture through the outer vaginal wall and knotted to a 1 cm section of a medical-grade tubing to avoid damage to the vaginal wall. The inserts in group one contained vehicle, the inserts in groups 2-4 were calculated to release oxybutynin at rates of 0.5 mg/day; 1 mg/day; and 5 mg/day respectively. The inserts remained in place for 7 days. Samples of blood (2 ml) were collected at 12:00 noon on days 1, 3, 5 and 7. After the last blood sample was obtained, each rabbit was sedated and cystometries were performed. Immediately after the cystometry, the rabbit was euthanized, the lower urinary tract including the vagina was removed and evaluated for irritation. In addition, the bladder was excised and weighed.
The samples of blood were frozen and subsequently analyzed. The oxybutynin and desethyloxybutynin concentrations were quantified.

[2] = oral administration of oxybutynin; cited from earlier work

| change of plasma concentration between day 1 and 3 ([1]; 0.5 mg/day vaginal insert) | plasma concentration course between days 3 and 7 ([1]; 0.5 mg/day vaginal insert) | change of plasma concentration between day 1 and 3 ([1]; 1.0 mg/day vaginal insert) | plasma concentration course between days 3 and 7 ([1]; 1.0 mg/day vaginal insert) | stable plasma concentration of 1.0 mg/day group relative to 0.5 mg/day group ([1]; vaginal inserts, FIG. 18) | stable plasma concentration of 5.0 mg/day group relative to 1.0 mg/day group ([1]; vaginal inserts, FIG. 18) | SMILES | plasma concentration ([1]; 0.5 mg/day vaginal insert) | plasma concentration ([1]; 1.0 mg/day vaginal insert) | plasma values at all time periods (day 1-7) [1] | AUC (area under the plasma time concentration curve) of the metabolite relative to oxybutynin [2] | peak blood concentration of the metabolite relative to oxybutynin [2] |
| --- | --- | --- | --- | --- | --- | --- | --- | --- | --- | --- | --- |
| – | – | – | – | – | – | CCNCC#CCOC(=O)C(O)(c1ccccc1)C1CCCCC1 (stereo not drawn) [N-desethyloxybutynin] | below the level of detection | below the level of detection | stable plasma values | 10-12 times | 6-9 times higher |
| increase | stable concentration | increase | stable concentration | approximately twice | approximately 4 fold | CCN(CC)CC#CCOC(=O)C(O)(c1ccccc1)C1CCCCC1 (stereo not drawn) [oxybutynin, 4-diethylamino-2-butynylphenylcyclohexylglycolate] | – | – | stable plasma values | – | – |
